Data taken from patent US5424328A, “Phenyl-imidazolidinone derivatives” (Farmitalia Carlo Erba S.r.l., priority 1992, dated 1995).

Tests used:
[1] = target: T1, serotonin 5-HT3 receptors (Rattus norvegicus, UniProt P35563); assay: Affinity for serotonin 5-HT3 receptors in rat entorhinal cortex, radioligand 3H-BRL 43694 binding
T1 construct: in rat entorhinal cortex; from tissue; host or cells: rat entorhinal cortex
T1 sequence (P35563 24-483): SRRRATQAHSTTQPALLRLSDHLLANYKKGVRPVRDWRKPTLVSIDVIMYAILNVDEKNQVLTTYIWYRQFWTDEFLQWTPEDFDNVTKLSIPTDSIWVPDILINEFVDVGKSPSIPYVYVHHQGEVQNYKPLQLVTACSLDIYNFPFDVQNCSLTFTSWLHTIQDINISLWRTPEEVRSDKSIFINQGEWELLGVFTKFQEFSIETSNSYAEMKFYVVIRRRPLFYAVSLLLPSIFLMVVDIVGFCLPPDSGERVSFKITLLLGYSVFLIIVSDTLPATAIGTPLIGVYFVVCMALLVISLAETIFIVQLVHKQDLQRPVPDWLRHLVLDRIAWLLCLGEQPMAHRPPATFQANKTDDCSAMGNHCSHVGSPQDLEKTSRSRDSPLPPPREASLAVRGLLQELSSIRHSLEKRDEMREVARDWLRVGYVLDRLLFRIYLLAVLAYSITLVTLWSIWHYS
Protocol: The affinity for serotonin 5-HT3 receptors was assessed for instance in rat entorhinal cortex using a selective radioligand 3H-BRL 43694 as described by Nelson and Thomas (1989).
NELSON D. R. and THOMAS D. R., [3H]-BRL 43694 (Granisetron), a specific ligand for 5-HT3 binding sites in rat brain cortical membranes, Biochem. Pharmac., 38, 1693-1695, 1989. The affinity data for a representative group of compounds of the invention are set out in following Table II.

5HT3 receptor = target: T2, 5HT3 receptor (Rattus norvegicus, UniProt P35563); assay: Inhibition of the von Bezold-Jarisch chemoreflex evoked by 5-HT in the anesthetized rat (in vivo 5HT3 antagonist activity); conditions: 5-HT 20 ug/kg i.v.; for % inhibition of the Bezold-Jarisch reflex: mean ± S.E.M., 6 animals, * p < 0.01 vs controls; for ED50: iv, read-out: ED50 (limits)
T2 construct: in the anesthetized rat; from tissue; host or cells: whole anesthetized rat (in vivo); endogenous receptor
T2 sequence (P35563 24-483): T1 sequence (P35563 24-483)
Protocol: Pharmacol. 326, 36-44 (1984).
The following Table I reports the in vivo 5HT3 antagonist activity data obtained in this test for a representative group of compounds of the invention.
Inhibition of the Bezold-Jarisch reflex elicited by 5-HT
(20 ug/kg i.v.) by i.v. FCE-compounds in the anesthetized
Values are mean ± S.E.M. from 6 animals.
*p < 0.01 vs controls (Dunnett's test).

For `O=C1N(Cc2c[nH]cn2)CCN1c1ccccc1` [FCE 28307, 1-(1H-imidazol-4-yl)methyl-3-phenyl-imidazolidin-2-one], the IC50 [1] was 44 nM and the “% inhibition of the Bezold-Jarisch reflex” value (“% inhibition” for short) (5HT3 receptor; dose 100 μg/kg i.v.) was 56.1 ± 10.3%.

For `Cc1[nH]cnc1CN1CCN(c2cc(Cl)cc(Cl)c2)C1=O` [FCE 28232, 1-(5-methyl-1H-imidazol-4-yl)methyl-3-(3,5-dichlorophenyl)-imidazolidin-2-one], the IC50 [1] was 0.42 nM, the “% inhibition” value (5HT3 receptor; dose 0.5 μg/kg i.v.) was 1.5 ± 4.8% and the “% inhibition” value (5HT3 receptor; dose 1 μg/kg i.v.) was 18.2 ± 2.4%. The “% inhibition” value (5HT3 receptor; dose 2 μg/kg i.v.) was 55.5 ± 7.1%, the “% inhibition” value (5HT3 receptor; dose 8 μg/kg i.v.) was 88.7 ± 1.8% and the ED50 (5HT3 receptor) was 2.2 µg/kg.

For `Cc1cccc(N2CCN(Cc3nc[nH]c3C)C2=O)c1` [FCE 28355, 1-(5-methyl-1H-imidazol-4-yl)methyl-3-(3-methylphenyl)-imidazolidin-2-one], the IC50 [1] was 4 nM, the “% inhibition” value (5HT3 receptor; dose 1 μg/kg i.v.) was 14.6 ± 7.3% and the “% inhibition” value (5HT3 receptor; dose 3 μg/kg i.v.) was 51.1 ± 4.3%. For the same compound, the “% inhibition” value (5HT3 receptor; dose 10 μg/kg i.v.) was 83.3 ± 3.5% and the ED50 (5HT3 receptor) was 3.1 µg/kg.

With `Cc1[nH]cnc1CN1CCN(c2cccc(Cl)c2)C1=O` [FCE 27733, 1-(5-methyl-1H-imidazol-4-yl)methyl-3-(3-chlorophenyl)-imidazolidin-2-one] the IC50 [1] was 2.1 nM, the “% inhibition” value (5HT3 receptor; dose 1 μg/kg i.v.) was 7.0 ± 6.0% and the “% inhibition” value (5HT3 receptor; dose 3 μg/kg i.v.) was 37.8 ± 5.8%. For the same compound, the “% inhibition” value (5HT3 receptor; dose 10 μg/kg i.v.) was 89.7 ± 1.8% and the ED50 (5HT3 receptor) was 5.26 µg/kg.

With `Cc1cc(C)cc(N2CCN(Cc3nc[nH]c3C)C2=O)c1` [FCE 28356, 1-(5-methyl-1H-imidazol-4-yl)methyl-3-(3,5-dimethylphenyl)-imidazolidin-2-one] the IC50 [1] was 1.8 nM and the “% inhibition” value (5HT3 receptor; dose 100 μg/kg i.v.) was 88.6 ± 2.4%.

With `Cc1[nH]cnc1CN1CCN(c2ccccc2)C1=O` [FCE 28277, 1-(5-methyl-1H-imidazol-4-yl)methyl-3-phenyl-imidazolidin-2-one] the IC50 [1] was 14 nM, the “% inhibition” value (5HT3 receptor; dose 1 μg/kg i.v.) was 14.7 ± 3.8% and the “% inhibition” value (5HT3 receptor; dose 3 μg/kg i.v.) was 37.4 ± 6.5%. For the same compound, the “% inhibition” value (5HT3 receptor; dose 10 μg/kg i.v.) was 79.4 ± 4.1% and the ED50 (5HT3 receptor) was 3.9 µg/kg.

In the case of `Cc1[nH]cnc1CN1CCN(c2cccc(Br)c2)C1=O` [FCE 28159, 1-(5-methyl-1H-imidazol-4-yl)methyl-3-(3-bromophenyl)-imidazolidin-2-one], the IC50 [1] is reported as 2.7 nM, the “% inhibition” value (5HT3 receptor; dose 3 μg/kg i.v.) is reported as 30.0 ± 5.9% and the “% inhibition” value (5HT3 receptor; dose 10 μg/kg i.v.) is reported as 64.2 ± 5.0%. For the same compound, the “% inhibition” value (5HT3 receptor; dose 30 μg/kg i.v.) was 84.4 ± 4.2% and the ED50 (5HT3 receptor) was 6.5 µg/kg.

With `Cc1[nH]cnc1CN1CCN(c2cccc(C#N)c2)C1=O` [FCE 28276, 1-(5-methyl-1H-imidazol-4-yl)methyl-3-(3-cyanophenyl)-imidazolidin-2-one] the IC50 [1] was 11 nM, the “% inhibition” value (5HT3 receptor; dose 10 μg/kg i.v.) was 14.3 ± 9.2% and the “% inhibition” value (5HT3 receptor; dose 30 μg/kg i.v.) was 44.5 ± 7.3%. For the same compound, the “% inhibition” value (5HT3 receptor; dose 100 μg/kg i.v.) was 87.7 ± 7.0% and the ED50 (5HT3 receptor) was 32.2 µg/kg.

In the case of `CSc1cccc(N2CCN(Cc3nc[nH]c3C)C2=O)c1` [FCE 28278, 1-(5-methyl-1H-imidazol-4-yl)methyl-3-(3-methylthiophenyl)-imidazolidin-2-one], the IC50 [1] is reported as 6.7 nM, the “% inhibition” value (5HT3 receptor; dose 10 μg/kg i.v.) is reported as 16.8 ± 8.1% and the “% inhibition” value (5HT3 receptor; dose 30 μg/kg i.v.) is reported as 54.7 ± 2.3%. The “% inhibition” value (5HT3 receptor; dose 100 μg/kg i.v.) was 85.8 ± 1.2% and the ED50 (5HT3 receptor) was 28.6 µg/kg.
